Legend:
[1] = four- to seven-day alcohol poisoning or acute barbiturate poisoning
[2] = tested on: animal after a 10-minute stop of blood flow; details: cited from earlier work
SUCNR1 = SUCNR1 (Homo sapiens, UniProt Q9BXA5); details: cited from earlier work
SUCNR1, sequence (Q9BXA5 whole entry, species assumed): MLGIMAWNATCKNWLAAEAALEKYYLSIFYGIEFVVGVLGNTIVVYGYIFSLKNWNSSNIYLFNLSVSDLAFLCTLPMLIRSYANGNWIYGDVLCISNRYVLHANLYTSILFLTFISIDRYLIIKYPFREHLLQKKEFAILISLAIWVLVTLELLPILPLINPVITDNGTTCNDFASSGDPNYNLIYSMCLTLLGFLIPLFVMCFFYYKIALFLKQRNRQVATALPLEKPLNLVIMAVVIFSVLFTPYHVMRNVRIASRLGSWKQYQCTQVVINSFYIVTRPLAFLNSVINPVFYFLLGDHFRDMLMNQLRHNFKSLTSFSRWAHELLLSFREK

## O=C(O)CCC(=O)O [natural conformer of succinic acid, succinic acid]
[1]
  severe intoxication: contributes to the prevention of severe intoxication

## O=C([O-])CCC(=O)[O-].[Na+].[Na+] [sodium succinate]
[2]; abdominal injection after the stop of blood flow
  condition of the central nervous system: not only fails to improve, but can aggravate, the condition of the central nervous system

## O=C(O)CCC(=O)O [succinate]
SUCNR1
  concentration in interstitial fluid and blood sufficient for SUCNR1 activation and HIF dimer stabilization: 2.10^−4 mol
  concentration needed to activate SUCNR1 or to stabilize HIF: 150 ± 180 µmol

## O=C(O)CCC(=O)O [succinic acid]
[2]; oral administration
  central nervous system recovery: improves the central nervous system's recovery
